Test results published in patent US20260207704A1, “STAPLED PEPTIDES AND METHODS THEREOF” (priority 2022, published 2026).
Read-outs that look alike come from different tables or passages of the source.

Tested on: DLD1 reporter
Test: reporter assay (DLD1 reporter assay)
Assay type: cell-based
Settings: read-out: DLD1 4% Abs IC50
From the text: Various technologies can be utilized for characterizing and/or assessing provided technologies (e.g., agents (e.g., various peptides), compositions, methods, etc.) in accordance with the present disclosure. As described herein, in some embodiments, a useful technology is or comprises fluorescence polarization. In some embodiments, a useful technology assesses LogP or LogD. In some embodiments, a useful technology is or comprises a CHI LogD assay. In some embodiments, a useful technology assesses solubility. In some embodiments, a useful technology is or comprises NanoBRET. In some embodiments, a useful technology is or comprises a reporter assay (e.g., DLD1 reporter assay). In some embodiments, a useful technology is or comprises alphascreen. Certain useful protocols are described in the Examples. Those skilled in the art appreciate that suitable adjustments may be made to such protocols, e.g., according to specific conditions, agents, purposes, etc.
Various technologies can be utilized to assess technologies of the present disclosure. For example, in some embodiments, solubility, LogD, interactions with targets, etc. of various agents such as stapled peptides were assessed using technologies described in WO 2022/261257 (e.g., those in its Examples). In some embodiments, solubility, shake flask LogD, and binding to beta-catenin were assessed. In some embodiments, an assay for assessing interactions, e.g., with beta-catenin, was fluorescence polarization as described in WO 2022/261257. In some embodiments, an assay was Nano-BRET target engagement assay that assessed beta-catenin/TCF4 engagement as described in WO 2022/261257. In some embodiments, an assay was a reporter assay as reported in Example 4 of WO 2022/261257. In some embodiments, an assay was a COLO320DM proliferation assay as reported in Example 4 of WO 2022/261257.

CC(=O)N1CCC[C@]12CC=CCCCC1(CCCC=CCCCOC(=O)N3CC[C@@]4(C3)NC(=O)[C@H](CCCCNC(=O)CC[C@@H](C(=O)N[C@H](C(N)=O)C(C)C)NC(=O)[C@H](Cc3csc5ccccc35)NC(=O)[C@H](Cc3ccccc3C(F)(F)F)NC4=O)NC(=O)[C@H](Cc3ccccc3)NC(=O)[C@H](C)NC(=O)[C@H](C)NC(=O)[C@H](CN(CC(=O)O)CC(F)(F)F)NC(=O)[C@H](CC(=O)O)NC1=O)NC(=O)[C@H](CC(C)(C)C)NC(=O)[C@H](CC(=O)O)NC2=O (relative stereo) [I-129, Ac-PL3-Asp-Npg-B5-Asp-TfeGA-Ala-Ala-Phe-Lys*3-PyrS2-2F3MeF-BztA-GlnR*3-Val-NH2]
IC50 (DLD1 4%): 1 to 5 µM

CC(=O)N1CCC[C@]12CC=CCCCC1(CCCC=CCCCOC(=O)N3CC[C@@]4(C3)NC(=O)[C@H](Cc3cn(nn3)CCCC[C@@H](C(=O)N[C@@H](C)C(N)=O)NC(=O)[C@H](Cc3csc5ccccc35)NC(=O)[C@H](Cc3ccsc3)NC4=O)NC(=O)[C@H](Cc3ccccc3)NC(=O)[C@H](C)NC(=O)[C@H](C)NC(=O)[C@H](Cc3cccc(C(=O)O)c3)NC(=O)[C@H](CC(=O)O)NC1=O)NC(=O)[C@H](CC(C)(C)C)NC(=O)[C@H](CC(=O)O)NC2=O (stereo partly drawn) [I-338, Ac-PL3-Asp-Npg-B5-Asp-3COOHF-Ala-Ala-Phe-sAla*3-PyrS2-3Thi-BztA-TriAzLys*3-Ala-NH2]
IC50 (DLD1 reporter, 4%): ≤ 1 µM

CC(=O)N1CCC[C@]12CC=CCCCC1(CCCC=CCCCOC(=O)N3CC[C@@]4(C3)NC(=O)[C@H](CCCCn3cc(nn3)C[C@@H](C(=O)N[C@@H](C)C(N)=O)NC(=O)[C@H](Cc3csc5ccccc35)NC(=O)[C@H](Cc3ccsc3)NC4=O)NC(=O)[C@H](Cc3ccccc3)NC(=O)[C@H](C)NC(=O)[C@H](C)NC(=O)[C@H](Cc3cccc(C(=O)O)c3)NC(=O)[C@H](CC(=O)O)NC1=O)NC(=O)[C@H](CC(C)(C)C)NC(=O)[C@H](CC(=O)O)NC2=O (stereo partly drawn) [I-337, Ac-PL3-Asp-Npg-B5-Asp-3COOHF-Ala-Ala-Phe-TriAzLys*3-PyrS2-3Thi-BztA-sAla*3-Ala-NH2]
IC50 (DLD1 reporter, 4%): ≤ 1 µM

CC(=O)N1CCC[C@]12CC=CCCCC1(CCCC=CCCCOC(=O)N3CC[C@@]4(C3)NC(=O)[C@H](CCCCNC(=O)CC[C@@H](C(=O)N[C@@H](C)C(N)=O)NC(=O)[C@H](Cc3csc5ccccc35)NC(=O)[C@H](Cc3ccsc3)NC4=O)NC(=O)[C@H](Cc3ccccc3)NC(=O)[C@H](C)NC(=O)C(C)(C)NC(=O)[C@H](Cc3cccc(C(=O)O)c3)NC(=O)[C@H](CC(=O)O)NC1=O)NC(=O)[C@H](CC(C)(C)C)NC(=O)[C@H]([C@H](C)O)NC2=O (relative stereo) [I-163, Ac-PL3-aThr-Npg-B5-Asp-3COOHF-Aib-Ala-Phe-Lys*3-PyrS2-3Thi-BztA-GlnR*3-Ala-NH2]
IC50 (DLD1 4%): > 5 µM

CC(=O)N1CCC[C@]12CC=CCCCC1(CCCC=CCCCOC(=O)N3CC[C@@]4(C3)NC(=O)[C@H](CCCCNC(=O)CC[C@@H](C(=O)N[C@@H](C)C(N)=O)NC(=O)[C@H](Cc3csc5ccccc35)NC(=O)[C@H](Cc3ccccc3C(F)(F)F)NC4=O)NC(=O)[C@H](Cc3ccccc3)NC(=O)[C@H](C)NC(=O)C(C)(C)NC(=O)[C@H](Cc3cccc(C(=O)O)c3)NC(=O)[C@H](CCC(=O)O)NC1=O)NC(=O)[C@H](CC(C)(C)C)NC(=O)[C@H](CCC(=O)O)NC2=O (relative stereo) [I-291, Ac-PL3-Glu-Npg-B5-Glu-3COOHF-Aib-Ala-Phe-Lys*3-PyrS2-2F3MeF-BztA-GlnR*3-Ala-NH2]
IC50 (DLD1 4%): 1 to 5 µM

CC(=O)N1CCC[C@]12CC=CCCCC1(CCCC=CCCCOC(=O)N3CC[C@@]4(C3)NC(=O)[C@H](CCCCNC(=O)CC[C@@H](C(=O)N[C@@H](CC(C)C)C(=O)N[C@@H](CO)C(N)=O)NC(=O)[C@H](Cc3csc5ccccc35)NC(=O)[C@H](Cc3ccccc3C(F)(F)F)NC4=O)NC(=O)[C@H](Cc3ccccc3)NC(=O)[C@H](C)NC(=O)C3(CCC3)NC(=O)[C@H](Cc3cccc(C(=O)O)c3)NC(=O)[C@H](CC(=O)O)NC1=O)NC(=O)[C@H](CC(C)(C)C)NC(=O)[C@H](CC(=O)O)NC2=O (relative stereo) [I-140, Ac-PL3-Asp-Npg-B5-Asp-3COOHF-Cbg-Ala-Phe-Lys*3-PyrS2-2F3MeF-BztA-GlnR*3-Leu-Ser-NH2]
IC50 (DLD1 4%): ≤ 1 µM

CC(=O)N1CCC[C@]12CC=CCCCC1(CCCC=CCCCOC(=O)N3CC[C@@]4(C3)NC(=O)[C@H](CCCCNC(=O)CC[C@@H](C(=O)N[C@@H](C)C(N)=O)NC(=O)[C@H](Cc3csc5ccccc35)NC(=O)[C@H](Cc3ccccc3C(F)(F)F)NC4=O)NC(=O)[C@H](Cc3ccccc3)NC(=O)[C@H](C)NC(=O)C(C)(C)NC(=O)[C@H](CN(CC(=O)O)CC(F)(F)F)NC(=O)[C@H](CC(=O)O)NC1=O)NC(=O)[C@H](CC(C)(C)C)NC(=O)[C@H](CC(=O)O)NC2=O (single isomer, unassigned) [I-121, Ac-PL3-Asp-Npg-B5-Asp-TfeGA-Aib-Ala-Phe-Lys*3-PyrS2-2F3MeF-BztA-GlnR*3-Ala-NH2]
IC50 (DLD1 4%): 1 to 5 µM

CC(=O)N1CCC[C@]12CC=CCCCC1(CCCC=CCCCOC(=O)N3CC[C@@]4(C3)NC(=O)[C@H](CCCCN(C(C)C)C(=O)CCC[C@@H](C(=O)N[C@@H](C)C(N)=O)NC(=O)[C@H](Cc3csc5ccccc35)NC(=O)[C@H](Cc3ccsc3)NC4=O)NC(=O)[C@H](Cc3ccccc3)NC(=O)[C@H](C)NC(=O)[C@H](C)NC(=O)[C@H](Cc3cccc(C(=O)O)c3)NC(=O)[C@H](CC(=O)O)NC1=O)NC(=O)[C@H](CC(C)(C)C)NC(=O)[C@H](CC(=O)O)NC2=O (relative stereo) [I-187, Ac-PL3-Asp-Npg-B5-Asp-3COOHF-Ala-Ala-Phe-iPrLys*3-PyrS2-3Thi-BztA-hGlnR*3-Ala-NH2]
IC50 (DLD1 4%): > 5 µM

CC(=O)N1CCC[C@]12CC=CCCCC1(CCCC=CCCCOC(=O)N3CC[C@@]4(C3)NC(=O)[C@H](CCCCNC(=O)CC[C@@H](C(=O)NC(C)(C)C(N)=O)NC(=O)[C@H](Cc3csc5ccccc35)NC(=O)[C@H](Cc3ccccc3C(F)(F)F)NC4=O)NC(=O)[C@H](Cc3ccccc3)NC(=O)[C@H](C)NC(=O)[C@H](C)NC(=O)[C@H](CN(CC(=O)O)CC(F)(F)F)NC(=O)[C@H](CC(=O)O)NC1=O)NC(=O)[C@H](CC(C)(C)C)NC(=O)[C@H](CC(=O)O)NC2=O (single isomer, unassigned) [I-126, Ac-PL3-Asp-Npg-B5-Asp-TfeGA-Ala-Ala-Phe-Lys*3-PyrS2-2F3MeF-BztA-GlnR*3-Aib-NH2]
IC50 (DLD1 4%): 1 to 5 µM

CC(=O)N1CCC[C@]12CC=CCCCC1(CCCC=CCCCOC(=O)N3CC[C@@]4(C3)NC(=O)[C@H](CCCCNC(=O)CC[C@@H](C(=O)N[C@@H](CCC(=O)O)C(=O)N[C@@H](C)C(N)=O)NC(=O)[C@H](Cc3csc5ccccc35)NC(=O)[C@H](Cc3ccsc3)NC4=O)NC(=O)[C@H](Cc3ccccc3)NC(=O)[C@H](C)NC(=O)C(C)(C)NC(=O)[C@H](Cc3cccc(C(=O)O)c3)NC(=O)[C@H](CC(=O)O)NC1=O)NC(=O)[C@H](CC(C)(C)C)NC(=O)[C@H](CC(=O)O)NC2=O (relative stereo) [I-342, Ac-PL3-Asp-Npg-B5-Asp-3COOHF-Aib-Ala-Phe-Lys*3-PyrS2-3Thi-BztA-GlnR*3-Glu-Ala-NH2]
IC50 (DLD1 reporter, 4%): ≤ 1 µM
